Measurements: publication PMC2659609 (Molecular cancer therapeutics, 2008)

What was measured:
[1] = biological target: purified recombinant human hepsin (Homo sapiens, UniProt P05981); assay: Hepsin activity assay, chromogenic substrate pyroGlu-Pro-Arg-pNA, kinetic
[2] = mainly to albumin; cited from earlier work
[3] = system: human hepatoma cell line HepG2; assay: General cell cytotoxicity assay; type: cell-based; conditions: 20μM, 72 hours, media and compounds replaced every 24 hours
[4] = system: mouse prostate epithelial cell line MP-1; assay: General cell cytotoxicity assay; type: cell-based; conditions: 20μM, 72 hours, media and compounds replaced every 24 hours
[5] = system: human prostate cancer cell line LNCaP; assay: General cell cytotoxicity assay; type: cell-based; conditions: 20μM, 72 hours, media and compounds replaced every 24 hours
HEK 293FT cells = assay: Toxicity to HEK 293FT cells under pericellular assay conditions; type: cell-based; conditions: 24-hour treatment
thrombin = thrombin (Bos taurus, UniProt P00735); assay: Thrombin activity assay, chromogenic substrate pyroGlu-Pro-Arg-pNA, kinetic; type: biochemical
[6] = biological target: full-length wild-type mouse hepsin expressed in HEK 293FT cells (Mus musculus, UniProt O35453); assay: Hepsin-dependent pericellular serine proteolytic activity assay; type: cell-based
trypsin = trypsin (Sus scrofa, UniProt P00761); assay: Trypsin activity assay, chromogenic substrate pyroGlu-Pro-Arg-pNA, kinetic; type: biochemical
[7] = approximate; cited from earlier work

purified recombinant human hepsin, sequence (P05981 46-417): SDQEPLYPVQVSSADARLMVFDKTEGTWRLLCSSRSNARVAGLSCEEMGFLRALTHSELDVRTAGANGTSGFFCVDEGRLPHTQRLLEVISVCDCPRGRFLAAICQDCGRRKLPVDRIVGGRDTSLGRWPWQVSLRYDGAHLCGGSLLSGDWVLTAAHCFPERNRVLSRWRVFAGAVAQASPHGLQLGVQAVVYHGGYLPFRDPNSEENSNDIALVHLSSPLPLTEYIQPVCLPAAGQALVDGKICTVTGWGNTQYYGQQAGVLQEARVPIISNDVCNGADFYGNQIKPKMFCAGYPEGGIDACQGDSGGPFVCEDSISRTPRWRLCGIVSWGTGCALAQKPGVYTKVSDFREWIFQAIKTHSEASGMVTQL
full-length wild-type mouse hepsin expressed in HEK 293FT cells, sequence (O35453 1-416 isoform O35453-2): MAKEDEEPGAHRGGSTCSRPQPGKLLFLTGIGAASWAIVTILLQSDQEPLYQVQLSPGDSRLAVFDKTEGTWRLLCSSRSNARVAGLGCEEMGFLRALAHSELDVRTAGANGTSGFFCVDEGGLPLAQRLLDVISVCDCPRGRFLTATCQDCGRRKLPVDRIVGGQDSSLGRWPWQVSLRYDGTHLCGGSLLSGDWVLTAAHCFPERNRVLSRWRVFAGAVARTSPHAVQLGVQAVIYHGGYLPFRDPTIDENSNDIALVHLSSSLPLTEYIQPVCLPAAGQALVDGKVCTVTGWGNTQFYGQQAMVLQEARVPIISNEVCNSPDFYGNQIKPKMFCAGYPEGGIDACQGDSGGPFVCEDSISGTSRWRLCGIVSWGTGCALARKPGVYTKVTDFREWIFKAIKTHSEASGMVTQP
trypsin, sequence (P00761 9-231): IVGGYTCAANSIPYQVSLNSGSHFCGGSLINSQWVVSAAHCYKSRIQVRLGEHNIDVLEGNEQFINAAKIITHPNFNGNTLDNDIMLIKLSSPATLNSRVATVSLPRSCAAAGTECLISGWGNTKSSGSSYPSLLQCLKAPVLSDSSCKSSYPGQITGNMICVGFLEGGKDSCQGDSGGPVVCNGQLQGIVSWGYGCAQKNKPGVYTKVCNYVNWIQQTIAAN

Row | Structure (SMILES) | cytotoxicity to HepG2 cells [3] | cytotoxicity to MP-1 cells [4] | cytotoxicity to LNCaP cells [5] | IC50 (thrombin) | also measured
1 | Cl.NCCc1ccc(S(=O)(=O)F)cc1 [PEFAbloc] |  |  |  |  | inhibition of hepsin proteolytic activity (in words) ([1]; 4mM PEFAbloc, 30 minutes, 0.4nM hepsin): completely inhibited
2 | O=C1Nc2ccc(Cl)cc2[C@@](C#CC2CC2)(C(F)(F)F)O1 [efavirenz] |  |  |  |  | protein bound in plasma [2]: more than 99%
3 | Oc1nc2cc(Cl)c(Cl)cc2nc1O [Compound 16, 2,3-dihydroxy-6,7-dichloroquinoxaline] | limited or no cytotoxicity | limited or no cytotoxicity | limited or no cytotoxicity |  | 
4 | O=C1c2c(O)cccc2Cc2cccc(O)c21 [Compound 15, anthralin] | toxic | toxic | toxic | > 20 µM | toxicity to HEK 293FT cells (HEK 293FT cells; 50μM): substantial toxicity
5 | Cc1cccc(CN2CCN(C(c3ccccc3)c3ccc(Cl)cc3)CC2)c1 (stereo not shown) [Compound 13, meclizine] | limited or no cytotoxicity | limited or no cytotoxicity | limited or no cytotoxicity | > 20 µM | attenuation of pericellular proteolytic activity ([6]; 50μM, normalized to hepsin expression level, relative to vehicle): ~25%; equilibration time dependence of hepsin inhibition [1]: significantly increased with extended equilibration time; reversibility of hepsin inhibition by dilution ([1]; inhibitor at its IC50, 1 hour at room temperature, then diluted): not reversible by dilution; overt toxicity to HEK 293FT cells / effect on hepsin expression levels (HEK 293FT cells; 20 and 50μM): without substantially affecting hepsin expression levels or displaying overt toxicity; IC50 (trypsin): > 20 µM
6 | CC(C)(Sc1cc(C(C)(C)C)c(O)c(C(C)(C)C)c1)Sc1cc(C(C)(C)C)c(O)c(C(C)(C)C)c1 [Compound 14, probucol] | limited or no cytotoxicity | limited or no cytotoxicity | limited or no cytotoxicity | > 20 µM | logP [7]: ~10; attenuation of pericellular proteolytic activity (in words) ([6]; 20 and 50μM, 24 hours): did not reduce
